This is an account of results in PMC12475274, “Harnessing indole scaffolds to identify small-molecule IRE1α inhibitors modulating XBP1 mRNA splicing” (Nature Communications, 2025).

The subject of series [1] is XBP1s protein in MDA-MB-231 cells. The experiment in a line: Western blot of XBP1s protein level, MDA-MB-231. The series is classed as cell-based, human. How it is done:
A549 cells and MDA-MB-231 Cells were harvested and seeded into 6-well plates with a density of 8 × 10^5 cells per well and cultured overnight. […]. Protein concentrations were measured using a BCA protein assay kit (Thermo Scientific, 23227) and all samples were diluted to the same protein concentration. Each sample with 40 μg of total protein was loaded onto a 4–15% MP stain-free gel (Bio-Rad, 4568085) and separated in tris-glycine-SDS running buffer. The proteins were transferred onto a 0.45 μm PVDF membrane (Bio-Rad, 1704274) using the Trans-Blot Turbo Transfer System with the preprogrammed standard SD protocol (up to 1.0 A; 25 V; 30 min). Membranes were blocked with 5% skim milk (Roth, T145.2) in PBST buffer, then incubated with primary antibody IRE1α (Cell Signaling Technology, #3294 s, 1:1000), XBP1s (Cell Signaling Technology, #12782 s, 1:1000) GAPDH (Proteintech, 10494-1-AP, 1:6000) overnight at 4 °C with shaking. After incubation, membranes were washed with PBST and incubated with the Goat Anti-Rabbit (Proteintech, SA00001-2, 1:6000) antibody at room temperature for 1 h. After washing with PBST, the membranes were visualized using Amersham ECL Prime Western Blotting Detection Kit (Cytiva, RPN2232) and imaged with a ChemiDoc MP imaging system (Bio-Rad).
(In western blotting, separated proteins are transferred to a membrane and probed.)

In a further series the target is T1, p-IRE1α dimerization (Homo sapiens, UniProt O75460).
T1 construct: Human IRE1α kinase and RNase domain (residues 547–977) was subcloned into pLIB plasmid; His tag (with TEV cleavage site) (N, cleaved yes); made in house; host or cells: Sf9 insect cells, baculovirus (Bac-to-Bac)
T1 sequence (O75460 547-977): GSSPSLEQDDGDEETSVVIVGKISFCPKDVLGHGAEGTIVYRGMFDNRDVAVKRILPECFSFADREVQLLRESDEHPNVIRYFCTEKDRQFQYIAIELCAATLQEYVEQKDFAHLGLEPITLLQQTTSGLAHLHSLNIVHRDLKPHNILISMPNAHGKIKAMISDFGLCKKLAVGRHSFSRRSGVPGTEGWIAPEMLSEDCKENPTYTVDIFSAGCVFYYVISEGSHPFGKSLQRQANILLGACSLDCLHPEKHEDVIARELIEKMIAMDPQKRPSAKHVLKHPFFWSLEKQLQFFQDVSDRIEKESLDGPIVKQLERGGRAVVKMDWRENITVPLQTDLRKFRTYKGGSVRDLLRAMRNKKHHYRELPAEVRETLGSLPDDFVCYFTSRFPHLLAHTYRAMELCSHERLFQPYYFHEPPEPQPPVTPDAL
As to the kind of experiment: SDS-PAGE gel-based crosslinking assay. From the text:
sustained inhibition effect.”
Fig. R1. (A) Gel-based cleavage assay using the same condition as FRET assay. (B) Fig.4g of current manuscript, IA107 binding affinity towards p-IRE1α in MST assay.
-Using Refeyn mass photometry of cross-linked IRE1α complexes, the authors observe that […]
However, this finding appears inconsistent with their crystallographic data showing separated RNase domains in dimeric IRE1. Since both kinase and RNase domain interactions contribute to the IRE1 dimer interface, one would expect at least some reduction in dimerization levels. It is also a bit worrying that the authors observe that one of the control compounds tested (G1749) also blocks dimerization/oligomerization in their assay (Extended Data Fig. 6d and 6e), as this compound was found not to affect the monomer/dimer equilibrium of IRE1 in PMID: 33318494.
We appreciate the Reviewer’s comments regarding the dimerization experiments. Our crystal […]
remain in the same dimer interaction interface as the apo p-IRE1α dimer. […]
observe dimerization inhibition by IA107 in the mass photometry assay nor SDS-PAGE gel-based crosslinking assay (Fig. R2A). […]
Fig. R2. […] Analyzed using the PDBePISA web server (PMID: 17681537). […]
inhibits IRE1α's RNase activity (measured as spliced XBP1 levels) in cells through engagement of IRE1α. […]

Another series deals with HCT 116 cells. As to the kind of experiment: Cell viability assay (CCK-8), HCT 116. The class given is cell-based, human. Conditions: HCT 116; for inhibition at 50 µM: Homo sapiens, read-out: antiproliferation, inhibition at highest tested concentration. How it is done:
(§1) Cells were collected and seeded into 96-well plates at a density of 2000–4000 cells per well and cultured overnight to allow cells to adhere. After adherence, cells were treated with the indicated compounds for 72 h. Then 20 μL CCK-8 solution (Vazyme, A311) was added into each well and incubated at 37 °C for 2–4 h. Absorbance was detected at a wavelength of 450 nm using a TECAN plate reader. Cell viability was calculated with the equation: Cell viability (%) = 100(Absorbance of treated cell - Absorbance of Blank control)/ (Absorbance of DMSO-treated cells - Absorbance of Blank control); Blank control: medium and CCK-8 solution, no cells.

In another series the test system is MDA-MB-468 cells. As to the kind of experiment: Cell viability assay (CCK-8), MDA-MB-468. To be noted: MDA-MB-468; for inhibition at 50 µM: Homo sapiens, read-out: antiproliferation, inhibition at highest tested concentration. The series is classed as cell-based, human. How it is done: as §1
Series [2] deals with T2, wild-type full-length IRE1α in A549 cell lysate (Homo sapiens, UniProt O75460).
T2 construct: endogenous in cells; host or cells: A549 cells
T2 sequence (O75460 19-977): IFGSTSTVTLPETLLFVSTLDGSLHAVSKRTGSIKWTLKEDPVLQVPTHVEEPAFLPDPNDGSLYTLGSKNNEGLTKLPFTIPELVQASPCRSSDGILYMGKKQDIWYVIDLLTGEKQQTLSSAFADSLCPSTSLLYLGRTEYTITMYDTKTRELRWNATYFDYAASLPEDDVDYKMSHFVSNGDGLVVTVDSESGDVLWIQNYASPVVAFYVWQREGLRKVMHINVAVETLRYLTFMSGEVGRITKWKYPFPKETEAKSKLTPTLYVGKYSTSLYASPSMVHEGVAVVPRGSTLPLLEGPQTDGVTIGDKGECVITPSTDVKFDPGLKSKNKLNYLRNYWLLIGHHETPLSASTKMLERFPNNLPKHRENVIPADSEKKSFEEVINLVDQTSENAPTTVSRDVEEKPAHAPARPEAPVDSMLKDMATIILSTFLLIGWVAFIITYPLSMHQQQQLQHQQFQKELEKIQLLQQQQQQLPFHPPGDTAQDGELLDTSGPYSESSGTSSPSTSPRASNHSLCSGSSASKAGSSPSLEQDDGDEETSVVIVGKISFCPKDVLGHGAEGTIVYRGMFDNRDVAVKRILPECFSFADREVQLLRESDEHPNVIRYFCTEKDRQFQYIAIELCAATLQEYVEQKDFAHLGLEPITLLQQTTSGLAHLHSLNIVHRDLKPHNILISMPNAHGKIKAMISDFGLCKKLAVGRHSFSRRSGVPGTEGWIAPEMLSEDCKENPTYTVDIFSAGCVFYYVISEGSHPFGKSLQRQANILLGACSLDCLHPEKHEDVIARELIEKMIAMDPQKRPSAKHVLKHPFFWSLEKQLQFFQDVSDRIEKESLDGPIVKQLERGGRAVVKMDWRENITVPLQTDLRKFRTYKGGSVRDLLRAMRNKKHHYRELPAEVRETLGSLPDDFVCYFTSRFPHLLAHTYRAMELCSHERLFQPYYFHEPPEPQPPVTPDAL
The experiment in a line: Thermal stability assay in A549 cell lysate. The class given is binding. The method, then: A549 cells were harvested and seeded into 100 mm standard cell culture dishes at 80% confluency and cultured overnight. For the IA107 experiment, cells were gently washed with pre-cooled DPBS (Gibco,14190169) and lysed in RIPA buffer (Sigma, R0278) supplemented with phosphatase inhibitor (Roch, 4906845001) and 1× protease inhibitor cocktail (Sigma, P8340) for 30 min on ice. Cell lysates were centrifuged at 18,000 × g for 30 min at 4 °C and the supernatants were collected. The lysates were collected together and then aliquoted into 550 μL, the aliquots were incubated with different concentrations of IA107 with a final concentration of 0.1% DMSO for 30 min at room temperature. After the incubation, the sample was aliquoted into 10 PCR tubes, with 50 μL of lysate per tube and further heated at the indicated temperatures using a PCR cycler (25 °C for 1 min; indicated temperatures for 3 min; 16 °C, hold). After heating, the lysates were centrifuged at 18,000 × g for 30 min at 4 °C and the supernatants were collected and mixed with 4x protein loading buffer (Invitrogen, 2463559), heated at 95 °C for 10 min and separated by 4–20% MP stain-free gels (Bio-Rad, 4568095) then transferred to 0.45 μm PVDF membranes (Bio-Rad, 1704274) using the Trans-Blot Turbo Transfer System with the preprogrammed standard SD protocol (Bio-Rad). […]

Entries after “also recorded” stand apart in the source; their conditions may differ.

In the case of `CCOC(=O)Nc1cccc2c(Oc3ncccc3-c3ccnc(N[C@H]4CCCNC4)n3)c(C)ccc12` [Compound G1749, reference compound], in series [1], the “effect on ER stress-induced XBP1s protein” value is on record as “partially inhibited”.

For the compound `Cc1ccc2c(NS(=O)(=O)c3ccccc3Cl)cccc2c1Oc1ncccc1-c1ccnc(N[C@H]2CCCNC2)n1` [KIRA8], the “effect on p-IRE1α dimerization” value on p-IRE1α dimerization is reported as “inhibited dimerization”.

For `Cc1c(CCC(=O)O)c2cc(Br)ccc2n1C(=O)c1ccccc1` [IA107], the “cytotoxicity” value in the series with HCT 116 cells and in the series on MDA-MB-468 cells was “did not show cytotoxicity” throughout. The inhibition at 50 µM in the series with HCT 116 cells and in the series with MDA-MB-468 cells was under 30% in each case. The “effect on p-IRE1α dimerization” value at p-IRE1α dimerization was “did not”. Also, the “thermal stabilization of full-length IRE1α in cell lysate” value in series [2] is “concentration-dependently stabilized; also recorded: stabilized full-length IRE1α in cell lysate; also recorded: stabilized the full-length IRE1α in a concentration-dependent manner”.

For the compound `CCOC(=O)CCc1c(C)n(C(=O)c2ccccc2)c2ccc(Br)cc12` [IAPD1], in the series with HCT 116 cells, the “cytotoxicity” value was “did not show cytotoxicity” and the inhibition at 50 µM was under 30%. In the series on MDA-MB-468 cells, the inhibition at 50 µM is under 30% and the “cytotoxicity” value is on record as “did not show cytotoxicity”. Further, the “effect on ER stress-induced XBP1s protein” value in series [1] is recorded as “inhibited the XPB1s protein level”.
